Reference: PMC5641865, “A screen for kinase inhibitors identifies antimicrobial imidazopyridine aminofurazans as specific inhibitors of the Listeria monocytogenes PASTA kinase PrkA” (The Journal of Biological Chemistry, 2017)
Like-named read-outs stand apart in the source and are kept apart here.

Key:
Type in all cases: biochemical
[1] = molecular target: T1, PrkA kinase domain; PrkA(1-338) (Listeria monocytogenes, UniProt A0A0H3GI69); experiment: Kinase-Glo ATP depletion assay
T1 construct: gene LMRG_00967; cytosolic kinase domain, residues 1-338, pGEX-2T GST fusion from E. coli Rosetta BL21, GST cut off with thrombin
T1 sequence (A0A0H3GI69 entry or part of it): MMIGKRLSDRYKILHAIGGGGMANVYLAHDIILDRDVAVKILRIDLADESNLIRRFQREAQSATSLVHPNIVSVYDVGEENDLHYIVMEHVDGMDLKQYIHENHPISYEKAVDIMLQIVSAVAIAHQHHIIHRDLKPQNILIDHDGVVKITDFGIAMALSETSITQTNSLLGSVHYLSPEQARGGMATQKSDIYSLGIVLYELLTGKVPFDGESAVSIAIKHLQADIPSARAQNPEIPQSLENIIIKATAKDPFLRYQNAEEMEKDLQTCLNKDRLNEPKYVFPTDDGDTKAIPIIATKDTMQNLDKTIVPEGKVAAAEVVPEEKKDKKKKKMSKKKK
From the text: Kinase-Glo ATP depletion assay on PrkA kinase domain; PrkA(1-338)

[2] = molecular target: T2, Stk1 kinase domain (Staphylococcus aureus, UniProt A0A0H2XGG5); experiment: Kinase-Glo ATP depletion assay
T2 construct: gene pknB; cytosolic kinase domain, residues 1-348, pGEX-2T GST fusion from E. coli Rosetta BL21, GST cut off with thrombin; Mn2+ in place of Mg2+
T2 sequence (A0A0H2XGG5 entry or part of it): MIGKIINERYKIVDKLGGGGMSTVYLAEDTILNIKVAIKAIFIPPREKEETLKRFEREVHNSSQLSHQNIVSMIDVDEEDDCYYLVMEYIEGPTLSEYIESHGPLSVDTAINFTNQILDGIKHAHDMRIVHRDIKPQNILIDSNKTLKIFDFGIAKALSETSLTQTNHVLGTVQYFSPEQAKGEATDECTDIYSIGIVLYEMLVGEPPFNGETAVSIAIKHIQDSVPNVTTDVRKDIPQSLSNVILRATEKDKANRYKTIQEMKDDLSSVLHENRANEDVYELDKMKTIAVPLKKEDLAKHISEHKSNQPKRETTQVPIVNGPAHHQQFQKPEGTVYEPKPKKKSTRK

[3] = molecular target: T2, Stk1 kinase domain; experiment: kinase inhibition assay (supplement)
[4] = read-out: Relative IC50 (95% CI)

Structure (SMILES)	IC50 [1, 4]	further results
CCn1c(-c2nonc2N)nc2c(C#CC(C)(C)O)ncc(OCC3CCNCC3)c21 [GSK554170A]	450 nM	
CCn1c(-c2nonc2N)nc2c(C#CC(C)(C)O)ncc(OC[C@@H]3CCCN3)c21 [GSK614526A]		IC50 [1]: 420 nM
CCn1c(-c2nonc2N)nc2c(C#CC(C)(C)O)ncc(OC[C@H]3CCCNC3)c21 [GSK690693]	840 nM	IC50 [2]: > 40000 nM
CCn1c(-c2nonc2N)nc2c(C#CC(C)(C)O)nc(OCCN)cc21 [GSK902056A]	410 nM	
O=C1Nc2ccccc2C1=C1Nc2ccccc2C1=NO [indirubin-3′-monoxime]		kinase inhibition assay (supplement) [3]: Stk1 can be biochemically inhibited by the kinase inhibitor indirubin-3′-monoxime
